PMC4441091 (Chemical & pharmaceutical bulletin, 2014)

Target: T1, FASN-TE; rTE (recombinant TE domain of human FASN) (Homo sapiens, UniProt P49327)
Assay: fluorogenic thioesterase assay
Assay type: biochemical
Conditions: not given

T1 sequence (P49327 2218-2511 limits assumed): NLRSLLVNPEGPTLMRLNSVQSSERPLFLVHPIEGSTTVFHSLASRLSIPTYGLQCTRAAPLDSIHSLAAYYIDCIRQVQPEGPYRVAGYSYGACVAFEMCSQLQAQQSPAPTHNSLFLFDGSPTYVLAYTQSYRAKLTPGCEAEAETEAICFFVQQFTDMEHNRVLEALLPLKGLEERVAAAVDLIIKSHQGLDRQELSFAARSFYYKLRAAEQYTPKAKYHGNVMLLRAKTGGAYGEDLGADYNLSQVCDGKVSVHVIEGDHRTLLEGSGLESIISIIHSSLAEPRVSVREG

| SMILES | IC50 [µM] |
| --- | --- |
| CC1=CC(=O)c2ccccc2C1=O [1c, menadione] | 21.9 |
| CC1=CC(=O)c2c(O)cccc2C1=O [1d, plumbagin] | 10.9 |
| O=C1C=CC(=O)c2c(O)cccc21 [1g, juglone] | 0.1 |
| O=C1C=C(N2CCOCC2)C(=O)c2c(O)cccc21 [1h, 8-Hydroxy-2-morpholinonaphthalene-1,4-dione] | 26.4 |
| O=C1C=CC(=O)C(SC2CCCC2)=C1 [2e, 2-(Cyclopentylthio)cyclohexa-2,5-diene-1,4-dione] | 6.4 |
| CCCCCCCSC1=CC(=O)C=CC1=O [2f, 2-(Heptylthio)cyclohexa-2,5-diene-1,4-dione] | 6.2 |
| O=C1C=CC(=O)C(Sc2ccccc2)=C1 [2g, 2-(Phenylthio)cyclohexa-2,5-diene-1,4-dione] | 0.2 |

Same assay, conditions: read-out: rTE IC50; substrate 4-methylumbelliferyl heptanoate

| SMILES | IC50 [µM] |
| --- | --- |
| CC1=C(Br)C(=O)c2ccccc2C1=O [1a, NS-4390] | 12.5 |

Target: T1, FASN-TE; rTE (recombinant TE domain of human FASN)
Assay: fluorogenic thioesterase assay
Assay type: biochemical
Conditions: not given
Remark: another data set of the same source

| SMILES | IC50 [µM] |
| --- | --- |
| O=C1C=CC(=O)c2c(O)ccc(O)c21 [1i, naphthazarin] | 3.5 |
